Among the test systems are M19-MEL melanoma; MALME-3M melanoma; SK-MEL-28 melanoma; 786-0 renal; SK-MEL-5 melanoma; UACC-257 melanoma; LXFL 529 NSCLC; RXF 393 renal; SN12C renal; DMS 273 small cell lung; SW-620 colon; LOX IMVI melanoma.
Holding throughout (assay): NCI tumour cell line growth inhibition, 48 h

Here are results for 16 molecules from PubChem BioAssay (NCI).

“And” between values parts separate entries of the source, which are not always exact repeats. Equal values may be shown once.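 Where inhibition never reached the appropriate level, the endpoint shown equals the highest concentration tested. Otherwise, values were interpolated linearly from a five-concentration, 48-hour dose response in 96-well plates. The concentration for full growth arrest is given as TGI.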

On to `CC(=O)OCC1OC(n2cc([N+](=O)[O-])c(=O)[nH]c2=O)C(OC(C)=O)C(OC(C)=O)C1OC(C)=O` (configuration not stated), for which the TGI with M19-MEL melanoma, in the assay on MALME-3M melanoma, in the assay with SK-MEL-28 melanoma, with 786-0 renal, in the assay on SK-MEL-5 melanoma and in the assay on UACC-257 melanoma was above 100 µM throughout. Moreover, the TGI in the assay on LXFL 529 NSCLC, in the assay on RXF 393 renal, in the assay with SN12C renal, in the assay with DMS 273 small cell lung, in the assay on SW-620 colon and with LOX IMVI melanoma was above 100 µM in each case.

As to `CC(=O)N(C(C)=O)C1=C2c3ccccc3N(S(=O)(=O)c3ccccc3)C2n2c(=O)n(-c3ccccc3)c(=O)n2C1` (configuration not stated), the TGI in the assay on M19-MEL melanoma is 94.7 µM; in the assay on MALME-3M melanoma, 46.5 µM; with SK-MEL-28 melanoma it was 58.2 µM; with 786-0 renal, above 100 µM; with SK-MEL-5 melanoma, 58.8 µM; with UACC-257 melanoma, above 100 µM. The TGI is above 100 µM in the assay with LXFL 529 NSCLC; above 100 µM in the assay on SN12C renal; above 100 µM with DMS 273 small cell lung; above 100 µM with SW-620 colon; 81.3 µM in the assay with LOX IMVI melanoma.

On to `C=CCNC(=S)/N=C/c1c(O)c2ccccc2oc1=O`, for which the TGI is above 100 µM with M19-MEL melanoma; 96 µM in the assay on MALME-3M melanoma; above 100 µM in the assay on SK-MEL-28 melanoma; above 100 µM with 786-0 renal; above 100 µM in the assay with SK-MEL-5 melanoma; above 100 µM in the assay with UACC-257 melanoma. The TGI is above 100 µM with LXFL 529 NSCLC; 85.8 µM in the assay on RXF 393 renal; above 100 µM in the assay on SN12C renal; above 100 µM in the assay on DMS 273 small cell lung; above 100 µM with SW-620 colon; above 100 µM with LOX IMVI melanoma.

As for `Cc1cn(C2OC(C)(CO)C(O)C2O)c(=O)[nH]c1=O` (configuration not stated), the TGI in the assay on M19-MEL melanoma, with MALME-3M melanoma, in the assay with SK-MEL-28 melanoma, in the assay on 786-0 renal, in the assay on SK-MEL-5 melanoma and with LXFL 529 NSCLC was above 100 µM in each case. Besides, the TGI in the assay on RXF 393 renal, in the assay on SN12C renal, in the assay on DMS 273 small cell lung, with SW-620 colon and with LOX IMVI melanoma was above 100 µM each time.

On to `N=S(c1ccccc1)c1ccccc1[N+](=O)[O-]` (configuration not stated), for which the TGI amounted to 29.7 µM in the assay with M19-MEL melanoma; 30.1 µM with MALME-3M melanoma; 30.3 µM in the assay with 786-0 renal; 28.5 µM in the assay on SK-MEL-5 melanoma; 32.2 µM in the assay with UACC-257 melanoma; 30.9 µM in the assay on LXFL 529 NSCLC. Further, the TGI in the assay on SN12C renal came out at 29.2 µM; in the assay on DMS 273 small cell lung, 34.4 µM; with SW-620 colon it was 31.4 µM; in the assay on LOX IMVI melanoma it was 28.2 µM.

On to `Cc1cc(=O)c2c([nH]1)NS(=O)(=O)NC2=O`, for which the TGI in the assay with M19-MEL melanoma, in the assay on MALME-3M melanoma, in the assay on SK-MEL-28 melanoma, in the assay on 786-0 renal, in the assay with UACC-257 melanoma and in the assay on LXFL 529 NSCLC was above 100 µM each time. In addition, the TGI in the assay with SN12C renal, in the assay with DMS 273 small cell lung and in the assay on SW-620 colon was above 100 µM in each case.

For `BrC/C=C/C[P+](c1ccccc1)(c1ccccc1)c1ccccc1`, the TGI in the assay with M19-MEL melanoma is 33.2 µM; in the assay on MALME-3M melanoma it was above 100 µM; with SK-MEL-28 melanoma, above 100 µM; in the assay with 786-0 renal, above 100 µM; with SK-MEL-5 melanoma, 39.8 µM; with UACC-257 melanoma, above 100 µM. Further, the TGI in the assay on LXFL 529 NSCLC is 45.1 µM; with SN12C renal, above 100 µM; with DMS 273 small cell lung, 14.2 µM; with SW-620 colon, above 100 µM; in the assay on LOX IMVI melanoma, 33.5 µM.

For the molecule `CC[C@H]1CN2CCc3cc(OC)c(OC)cc3[C@@H]2C[C@@H]1C[C@H]1NCCc2cc(OC)c(OC)cc21`, the TGI in the assay on M19-MEL melanoma is 0.0824 µM and 0.147 µM; in the assay on MALME-3M melanoma, 0.255 µM; in the assay with SK-MEL-28 melanoma, 0.176 µM and 0.109 µM; in the assay on 786-0 renal, 0.0621 µM and 0.248 µM; in the assay with SK-MEL-5 melanoma it was 0.0701 µM and 0.0855 µM; with UACC-257 melanoma, 0.361 µM and 0.529 µM. The TGI in the assay with RXF 393 renal is 0.0593 µM; with SN12C renal it was 0.295 µM and 0.271 µM; with DMS 273 small cell lung, 0.18 µM and 0.0463 µM; with LOX IMVI melanoma it was 0.0205 µM.

Turning to `CC(=O)O[C@]12CCCCCC1C1(O)C(O)CCC[C@H]12` (some centres not stated), the TGI in the assay with M19-MEL melanoma, with MALME-3M melanoma, in the assay with SK-MEL-28 melanoma, in the assay with 786-0 renal, in the assay on SK-MEL-5 melanoma and in the assay on UACC-257 melanoma was above 100 µM each time. The TGI in the assay with LXFL 529 NSCLC, with RXF 393 renal, in the assay with SN12C renal, in the assay on DMS 273 small cell lung, in the assay with SW-620 colon and in the assay on LOX IMVI melanoma was above 100 µM in each case.

For the molecule `O=C(NC(Cc1ccc(I)cc1)C(=O)O)c1ccc(I)cc1` (configuration not stated), the TGI with M19-MEL melanoma, in the assay with MALME-3M melanoma, with SK-MEL-28 melanoma, in the assay on SK-MEL-5 melanoma, in the assay on UACC-257 melanoma and in the assay on RXF 393 renal was above 100 µM each time. Further, the TGI in the assay on SN12C renal was above 100 µM; with DMS 273 small cell lung it was above 100 µM; in the assay on SW-620 colon it was above 37.3 µM; in the assay with LOX IMVI melanoma it was above 100 µM.

In the case of `COCOc1ccc(Cn2c(=O)n(C)c(=O)c3c2ncn3C)cc1[N+](=O)[O-]`, the TGI in the assay with M19-MEL melanoma, with MALME-3M melanoma, with SK-MEL-28 melanoma, in the assay with 786-0 renal, with UACC-257 melanoma and in the assay with LXFL 529 NSCLC was above 100 µM throughout. In addition, the TGI with RXF 393 renal, in the assay on SN12C renal, in the assay with DMS 273 small cell lung, with SW-620 colon and in the assay with LOX IMVI melanoma was above 100 µM each time.

In the case of `CC12CC(=O)C3C(C(=O)C1)C32C` (configuration not stated), the TGI with MALME-3M melanoma, in the assay with SK-MEL-28 melanoma, in the assay with 786-0 renal, in the assay on SK-MEL-5 melanoma, with UACC-257 melanoma and with RXF 393 renal was above 100 µM in each case. Moreover, the TGI in the assay on SN12C renal, in the assay on SW-620 colon and in the assay with LOX IMVI melanoma was above 100 µM in each case.

For `CCCCC1c2c([nH]c3ccccc23)C2C(=O)N(c3ccc(OC)cc3)C(=O)C2C1CCC` (configuration not stated), the TGI is 9.42 µM with MALME-3M melanoma; above 10 µM in the assay on SK-MEL-28 melanoma; above 10 µM in the assay with 786-0 renal; above 10 µM in the assay with SK-MEL-5 melanoma; 9.62 µM in the assay with UACC-257 melanoma; above 10 µM in the assay with RXF 393 renal. The TGI in the assay with SN12C renal is 4.04 µM; in the assay with SW-620 colon it was above 10 µM; in the assay with LOX IMVI melanoma it was above 10 µM.

Take `O=C(NCCCN(CCCCN(CCCNC(=O)C(F)(F)F)Cc1ccccc1)Cc1ccccc1)C(F)(F)F`: the TGI in the assay on MALME-3M melanoma was 28.4 µM; in the assay with SK-MEL-28 melanoma, 25.1 µM; with 786-0 renal it was 25.1 µM; with SK-MEL-5 melanoma it was 14.9 µM; in the assay with UACC-257 melanoma it was 16.9 µM; in the assay with RXF 393 renal it was 32.6 µM. Besides, the TGI in the assay with SN12C renal stood at 36.5 µM; with SW-620 colon, 34.2 µM; in the assay on LOX IMVI melanoma, 21.3 µM.

As to `CC(C(=O)n1nnc2ccccc21)N(c1ccccc1)c1ccccc1` (configuration not stated), the TGI in the assay with M19-MEL melanoma, in the assay with MALME-3M melanoma, with SK-MEL-28 melanoma, in the assay with 786-0 renal, with SK-MEL-5 melanoma and in the assay on UACC-257 melanoma was above 100 µM throughout. Further, the TGI in the assay on LXFL 529 NSCLC, with RXF 393 renal, with SN12C renal, in the assay with DMS 273 small cell lung, in the assay on SW-620 colon and in the assay with LOX IMVI melanoma was above 100 µM each time.

`N#CC(C#N)=CNC(=S)c1ccncc1`: the TGI with MALME-3M melanoma, in the assay on SK-MEL-28 melanoma, with 786-0 renal, in the assay with SK-MEL-5 melanoma, in the assay on UACC-257 melanoma and with RXF 393 renal was above 100 µM throughout. For the same molecule, the TGI with SN12C renal, in the assay on SW-620 colon and in the assay with LOX IMVI melanoma was above 100 µM each time.
